We go through six molecules from US20240024494A1, “SMALL-MOLECULE CONJUGATE AND USE THEREOF” (SHANGHAI MEWSGEN BIOTECHNOLOGY CO., LTD, priority 2020, published 2024).

The term IC50 denotes the point on the concentration scale where inhibition reaches its midpoint.

Each structure is given as a SMILES string. Where only a bound is given, the exact number is not on record here.

Test [1] concerns MIA PACA-2 (human pancreatic cancer cells). Briefly: Tumor cell proliferation inhibition test, CCK-8 method (Example 21). It counts as cell-based. To be noted: CCK-8, 72 h, Table 3; read-out: IC50 MIA PACA-2. Here is the method: (§1) A part of the compounds prepared in the examples of the present disclosure were subjected to a tumor cell proliferation inhibition test by using a CCK-8 method. Cell lines HCT116 (human colon cancer cells), MGC803 (human gastric cancer cells), and MIA PACA-2 (human pancreatic cancer cells) were purchased from Shanghai Meixuan Technology Co., Ltd. Samples (a part of the compounds prepared in the examples) were dissolved in DMSO (Merck), prepared into a concentration of 10 mM, and finally triply diluted in DMEM or McCoy's 5A 1640 medium to 8 concentration gradients. A cell culture solution was collected when a cell culture met a test requirement, 10 μL of the cell culture solution was uniformly coated on a cell counting plate, cells were counted for 3 times under a microscope, and a cell density was calculated by taking an average value; and a 96-well plate (Corning, #3599) was taken, 200 μL of the cell culture solution was added into each well for cell inoculation at a cell concentration of 6×10^3 cells per well, and the inoculated 96-well plate was incubated in a cell incubator containing 5% CO2 at 37° C. for 24 h. An old culture medium was removed by suction, 200 μL of the triply diluted sample DMEM or McCoy's 5A 1640 medium at an initial concentration of 10 μmol/L was added to each well, the DMSO content was controlled to be 1%, three duplicate wells were set, PBS was used as a blank control, and the plate was incubated in the incubator for 72 h. The original DMEM or McCoy's 5A 1640 medium in the 96-well plate and a PBS buffer in a final row were sucked out, a prepared CCK-8 solution (90% DMEM or McCoy's 5A 1640 medium+10% CCK-8) was added, the mixture was incubated in an incubator, and an absorbance was read by using a Biotek microplate reader. Cell growth inhibition rate IC %=(blank control well OD value−administration well OD value)/blank control well OD value×100%.

The test system of test [2] is HCT116 (human colon cancer cells). The description is as above. It counts as cell-based. Particulars: CCK-8, 72 h, Table 3; read-out: IC50 HCT116. Here is the method: as §1
The subject of test [3] is MGC803 (human gastric cancer cells). The test is described as above. In kind it is cell-based. To be noted: CCK-8, 72 h, Table 3; read-out: IC50 MGC803. Here is the method:
as §1

Test [4] relates to tumor cell strains (colon cancer, pancreatic cancer, esophageal squamous carcinoma, gastric cancer, glioma). Briefly: Summary of in-vitro proliferation inhibition on tumor cell strains (Examples 19-21). It counts as cell-based, human. As to the method:
as §1, with “A cell line” for “Cell lines”, “carcinoma cells)” for “cancer cells), MGC803 (human gastric cancer cells),”, “SW1990” for “MIA PACA-2”, “carcinoma” for “cancer”
(§2) In-vitro activity test: 100 μL of a cell suspension at a concentration of 4-5×10^4/mL was added to each well of a 96-well plate, and placed in a 5% CO2 incubator at 37° C. After 24 h, a sample solution was added at 10 μL/well, double duplicate wells were set, and a reaction was performed at 37° C. with 5% CO2 for 72 h. 20 μL of 5 mg/ml of an MTT solution was added into each well and reacted for 4 h, a dissolving solution was added at 100 μL/well, the mixture was placed in an incubator, and after dissolution, an OD value at 570 nm was measured with a full-wavelength multifunctional microplate reader. An inhibition rate (IR) and a median inhibitory concentration (IC50) were calculated by using an Excel software.
A part of the compounds prepared in the examples of the present disclosure were subjected to a tumor cell proliferation inhibition test by using a CCK-8 method. Cell lines HCT116 (human colon cancer cells), MGC803 (human gastric cancer cells), and MIA PACA-2 (human pancreatic cancer cells) were purchased from Shanghai Meixuan Technology Co., Ltd. Samples (a part of the compounds prepared in the examples) were dissolved in DMSO (Merck), prepared into a concentration of 10 mM, and finally triply diluted in DMEM or McCoy's 5A 1640 medium to 8 concentration gradients. A cell culture solution was collected when a cell culture met a test requirement, 10 μL of the cell culture solution was uniformly coated on a cell counting plate, cells were counted for 3 times under a microscope, and a cell density was calculated by taking an average value; and a 96-well plate (Corning, #3599) was taken, 200 μL of the cell culture solution was added into each well for cell inoculation at a cell concentration of 6×10^3 cells per well, and the inoculated 96-well plate was incubated in a cell incubator containing 5% CO2 at 37° C. for 24 h. […]

Test [5] deals with SW1990 (human pancreatic carcinoma cells). Briefly: Tumor cell proliferation inhibition test, CCK-8 method (Example 19). In kind it is cell-based. Particulars: CCK-8, 72 h, Table 1; read-out: IC50 SW1990. As to the method: as §1, with “A cell line” for “Cell lines”, “carcinoma cells)” for “cancer cells), MGC803 (human gastric cancer cells),”, “SW1990” for “MIA PACA-2”, “carcinoma” for “cancer”

Test [6] relates to HCT116 (human colon carcinoma cells). The test is described as above. In kind it is cell-based. Particulars: CCK-8, 72 h, Table 1; read-out: IC50 HCT116. Here is the method: as §1, with “A cell line” for “Cell lines”, “carcinoma cells)” for “cancer cells), MGC803 (human gastric cancer cells),”, “SW1990” for “MIA PACA-2”, “carcinoma” for “cancer”
For test [7], the system named is SHG44 (human glioma cells). In kind it is cell-based. Particulars: MTT, 72 h, Table 2; read-out: IC50 SHG44.
From the text: (§3) A part of the compounds of the examples of the present disclosure were subjected to a tumor cell proliferation inhibition test by using an MTT method (e.g. Pharmacological Research Method of New Drug, 2007: 242-243, edited by Lu Qiujun).
(§4) A cell strain was selected from KYSE-150 (human esophageal squamous carcinoma cells), MGC803 (human gastric carcinoma cells), and SHG44 (human glioma cells), and frozen and passaged by a pharmacological laboratory of Shanghai Institute of Pharmaceutical Industry. A culture solution was DMEM+10% FBS+double antibody.
as §2
(§5) The inhibition rate (IR %) of the drug on cell growth was calculated according to the following equation: […]

In test [8] the test system is MGC803 (human gastric carcinoma cells). In kind it is cell-based. Particulars: MTT, 72 h, Table 2; read-out: IC50 MGC803.
From the text: as §3, §4, §2, §5

For test [9], the system named is KYSE-150 (human esophageal squamous carcinoma cells). It counts as cell-based. Particulars: MTT, 72 h, Table 2; read-out: IC50 KYSE-150.
From the text: as §3, §4, §2, §5

For the molecule `COc1cc(C(=O)NCCOCCOCCOCCC(=O)N[C@H](C(=O)N[C@@H](CCCNC(N)=O)C(=O)Nc2ccc(COC(=O)N3CCN(C(=O)O[C@H]4CC[C@@]5(C)[C@H](CC[C@@H]6[C@@H]5[C@H](O)C(=O)[C@]5(C)C(c7ccc(=O)oc7)CC[C@]65O)C4)CC3)cc2)C(C)C)ccc1NC(=O)[C@@H]1N[C@@H](CC(C)(C)C)[C@](C#N)(c2ccc(Cl)cc2F)[C@H]1c1cccc(Cl)c1F` (stereo partly shown) [Compound I-2], the half-maximal inhibitory concentration (IC50) was 212 nM in test [1], 26 nM in [2] and 54 nM in test [3]. For the same molecule, the “Proliferation inhibition activities IC50 on most tumor cell strains (in words)” value (“Proliferation inhibition activities IC50” for short) in test [4] is reported as “between several to hundreds of nanomoles”.

`COc1cc(C(=O)NCCOCCOCCOCCOCCC(=O)N[C@@H](C(=O)N[C@@H](CCCNC(N)=O)C(=O)Nc2ccc(COC(=O)NC3=C(C)C(=O)C4=C(C3=O)[C@@H](COC(N)=O)[C@@]3(OC)[C@H]5N[C@H]5CN43)cc2)C(C)C)ccc1NC(=O)[C@@H]1N[C@@H](CC(C)(C)C)[C@](C#N)(c2ccc(Cl)cc2F)[C@H]1c1cccc(Cl)c1F` [Compound I-6]: the IC50 in test [5] was more than 50000 nM; in test [6] it was 542 nM; in [7] it was more than 50000 nM; in [8], more than 50000 nM; in test [9], 19400 nM.

On to `COc1cc(C(=O)NCCOCCOCCOCCOCCOCCOCCC(=O)N[C@@H](C(=O)N[C@@H](CCCNC(N)=O)C(=O)Nc2ccc(COC(=O)N3CCN(C(=O)O[C@H]4CC[C@@]5(C)[C@H](CC[C@@H]6[C@@H]5[C@H](O)C(=O)[C@]5(C)C(c7ccc(=O)oc7)CC[C@]65O)C4)CC3)cc2)C(C)C)ccc1NC(=O)[C@@H]1N[C@@H](CC(C)(C)C)[C@](C#N)(c2ccc(Cl)cc2F)[C@H]1c1cccc(Cl)c1F` (stereo partly shown) [Compound I-8], for which the half-maximal inhibitory concentration (IC50) in test [1] turned out to be 87 nM; in [2], 12 nM; in [3], 12 nM. In addition, in test [4], the “Proliferation inhibition activities IC50” value is listed as “between several to hundreds of nanomoles”.

As to `COc1cc(C(=O)NCCOCCOCCOCCOCCC(=O)N[C@H](C(=O)N[C@@H](C)C(=O)Nc2ccc(COC(=O)N3CCC(NC(=O)O[C@H]4CC[C@]5(C)C6CC[C@]7(C)[C@@H](c8ccc(=O)oc8)CC[C@]7(O)C6CC[C@@H]5C4)CC3)cc2)C(C)C)ccc1NC(=O)[C@@H]1N[C@@H](CC(C)(C)C)[C@](C#N)(c2ccc(Cl)cc2F)[C@H]1c1cccc(Cl)c1F` (stereo partly shown) [Compound I-11], the values for the IC50 in test [1], in [2] and in [3] were 68 nM, 27 nM and 10 nM, respectively. The “Proliferation inhibition activities IC50” value in test [4] is “between several to hundreds of nanomoles”.

Take `COc1cc(C(=O)NCCOCCOCCOCCOCCC(=O)N[C@@H](CCSC)C(=O)N[C@@H](CCCNC(N)=O)C(=O)Nc2ccc(COC(=O)N3CCN(C(=O)O[C@H]4CC[C@@]5(C)[C@H](CC[C@@H]6[C@@H]5[C@H](O)C(=O)[C@]5(C)[C@@H](c7ccc(=O)oc7)CC[C@]65O)C4)CC3)cc2)ccc1NC(=O)[C@@H]1N[C@@H](CC(C)(C)C)[C@](C#N)(c2ccc(Cl)cc2F)[C@H]1c1cccc(Cl)c1F` [Compound I-13]: the half-inhibitory concentration (IC50) stood at 24 nM in test [1], 14 nM in test [2] and 14 nM in test [3]. The “Proliferation inhibition activities IC50” value in test [4] is “between several to hundreds of nanomoles”.

In the case of `COc1cc(C(=O)NCCOCCOCCOCCOCCC(=O)N[C@@H](CCSC)C(=O)N[C@@H](CCCNC(N)=O)C(=O)Nc2ccc(COC(=O)N3CCC(NC(=O)O[C@H]4CC[C@]5(C)C6CC[C@]7(C)[C@@H](c8ccc(=O)oc8)CC[C@]7(O)C6CC[C@@H]5C4)CC3)cc2)ccc1NC(=O)[C@@H]1N[C@@H](CC(C)(C)C)[C@](C#N)(c2ccc(Cl)cc2F)[C@H]1c1cccc(Cl)c1F` (stereo partly shown) [Compound I-14], the IC50 in test [1] is 670 nM; in test [2], 483 nM; in [3], 249 nM. Further, in test [4], the “Proliferation inhibition activities IC50” value was “between several to hundreds of nanomoles”.
